Values quoted from earlier work as cited in patent US20070065449A1 (priority 2005, published 2007).
Where a name gives a salt, the structure may show the parent alone. Read-outs that look alike come from different tables or passages of the source.

Key:
[1] = system: pretreated adult soft tissue sarcoma
[2] = system: advanced soft tissue sarcomas
soft tissue sarcomas [3] = system: soft tissue sarcomas
[4] = system: advanced soft tissue sarcomas; conditions: previously untreated advanced soft tissue sarcomas
tubulin = conditions: read-out: concentration required to provide 50% inhibition of microtubule disassembly (IC50)
[5] = system: angiosarcoma of the scalp or face; conditions: four partial and four clinical complete responses
[6] = system: leiomyosarcoma of the uterus; conditions: 48 evaluable patients
[7] = not given; remark: listed apart in the source
soft tissue sarcoma [8] = conditions: 29 evaluable patients, previously treated with chemotherapy
[9] = not given; remark: listed apart in the source
soft tissue sarcoma [10] = conditions: 27 evaluable patients, previously treated with chemotherapy
[11] = in vivo
soft tissue sarcomas [12] = conditions: previously untreated patients; 95% CI 0.1, 29

## Nc1ccn([C@@H]2O[C@H](CO)[C@@H](O)C2(F)F)c(=O)n1 [gemcitabine]
[1]; 15 assessable patients
  disease stabilization: 47%
[1]; calculated, 95% CI 0, 30.5
  progression-free survival rate at 6 months: 13.3%
[1]; calculated, 95% CI 21.4, 71.9
  progression-free survival rate at 3 months: 46.7%
[1]; gemcitabine 1.0 g/m^2 days 1, 8, 15 every 4 weeks, 15 assessable patients
  remission rate: 6%
[1]; range 1-18+
  median progression-free survival: 3 months
[2]; in vivo
  duration of a partial response in a patient: 8 months
[2]; previously untreated patients, 90% CI 0, 18
  rate of remissions: 4%
6 of 2429 patients
  hemolytic uremic syndrome (HUS): 0.25%
human, in vivo
  edema: 13%
  flu syndrome: 19%
  generalized edema: < 1%
  overall incidence of fever: 41%
  peripheral edema: 20%
  principal dose-limiting toxicity: Myelosuppression
  rash: 30%
Usually mild to moderate severity
  nausea and vomiting: 69%
Soft tissue sarcomas [3]; 17 patients with GIST
  objective responses in patients with GIST: no objective responses
Soft tissue sarcomas [3]; in vivo
  median duration of remission: 3.5 months
Soft tissue sarcomas [3]; patients with soft tissue sarcomas
  remission rate: 18%

## CC(=O)O[C@H]1C(=O)[C@@]2(C)[C@H]([C@H](OC(=O)c3ccccc3)[C@]3(O)C[C@H](OC(=O)[C@H](O)[C@@H](NC(=O)c4ccccc4)c4ccccc4)C(C)=C1C3(C)C)[C@]1(OC(C)=O)CO[C@@H]1C[C@@H]2O [paclitaxel]
[4]
  response rate: 12.5%
tubulin
  IC50: 0.4 µM
[5]
  patients responding: eight of nine
[6]
  complete or partial response: 8.4%
  stable disease: 22.9%

## Nc1ccn([C@@H]2O[C@H](CO)[C@@H](O)C2(F)F)c(=O)n1 [Gemcitabine HCl, 2′-deoxy-2′,2′-difluorocytidine monohydrochloride ((beta)-isomer)]
[7]
  solubility in ethanol and polar organic solvents: practically insoluble
  solubility in methanol: slightly soluble
  solubility in water: soluble

## CC(=O)O[C@@]12CO[C@@H]1C[C@H](O)[C@@]1(C)C(=O)[C@H](O)C3=C(C)[C@@H](OC(=O)[C@H](O)[C@@H](NC(=O)OC(C)(C)C)c4ccccc4)C[C@@](O)([C@@H](OC(=O)c4ccccc4)[C@H]21)C3(C)C [docetaxel]
Soft tissue sarcoma [8]
  partial responses: 17%
tubulin
  IC50: 0.2 µM
[9]; 10 mg docetaxel/ml, refrigerator or room temperature
  storage time of initial diluted solution: ≤ 8 h
[9]; stored between 2 and 25° C.
  stability of infusion solution: 4 h
Soft tissue sarcoma [10]
  partial responses: 15%
[11]
  major toxic effect which limits dose: neutropenia
Soft tissue sarcomas [12]
  response rate: 5.9%
